Data published in paper PMC12406196, “Anticoronavirus Activity of Uridine Glycoconjugates Containing a 1,2,3-Triazole Moiety” (Journal of Medicinal Chemistry, 2025).
“Also recorded” adds a separate entry of the source.

Columns and labels:
[1] = system: murine hepatitis virus strain A59 (MHV); assay: Reduction of MHV cytopathic effect (CPE) in LR7 cells, MTS/PMS readout; type: cell-based; conditions: 50 μM, MOI 0.01, 24 h
Procedure: LR7 cells were seeded in a 96-well plate and cultured overnight. Next, the cells were infected with MHV at an MOI value of 0.01 in medium without FBS. Following 1 h of incubation, the medium containing the virus was collected and cells were covered with a medium supplemented with different concentrations (in triplicate) of the analyzed compounds or DMSO. 24 h p.i. cells viability was evaluated by CellTiter 96 AQueous nonradioactive cell proliferation assay (Promega) according to the manufacturer’s instruction.

LR7 cells = assay: MTS-based cell viability assay in LR7 cells; set-up: species or system mouse; conditions: 50 μM, uninfected LR7 cells
Procedure: LR7, LLC-Mk2 or Vero cells were seeded in 96-well plates and cultured overnight. Next, the medium was changed to a new one supplemented with different concentrations (in triplicate) of analyzed compounds. Following the 2 days (LR7 and Vero) or 4 days (LLC-Mk-2) of incubation, CellTiter 96 AQueous nonradioactive cell proliferation assay (Promega) was performed according to the manufacturer’s instruction. The half-maximal cytotoxic concentration (CC50) was calculated as the concentration of a compound needed to reduce cell viability by 50% using GraphPad Prism software (version 5.01, GraphPad Software, San Diego, CA).

[2] = system: human coronavirus strain NL63 (HCoV-NL63); assay: HCoV-NL63 N protein expression in LLC-Mk2 cells, Western blot and densitometry; type: cell-based; conditions: 50 μM, MOI 0.01, 4 days p.i., Western blot/densitometry
Procedure: LLC-Mk2 monolayers grown in 24-well plates were infected with HCoV-NL63 at an MOI value of 0.01 for 2 h. Unbound virus was removed, and cells were cultured in medium supplemented with different concentrations of compounds. Four days postinfection, cells were collected and lysed in CellLyticM Cell Lysis Reagent (Sigma). Following the protein separation by SDS-PAGE and transfer to PVDF membranes, proteins were immunoblotted using specific mouse anti-N NL63 Abs (Eurofins, Spain) or rabbit anti-β-catenin Abs (Santa Cruz), followed by antimouse or antirabbit secondary antibodies conjugated with HRP. Proteins were visualized and analyzed by chemiluminescence using the UVITEC Cambridge Alliance MINI HD detection system. The densitometric analysis of cells treated with 50 μM dose of a panel of glycoconjugates was performed based on three biological replicates of N and β-catenin immunoblots. The N protein levels were expressed as a percentage relative to DMSO-treated infected cells, while β-catenin levels were expressed as a percentage relative to noninfected control cells. The data were presented as the ratio of N/β-catenin for each sample, normalized accordingly.

SARS-CoV-2 replicon = type: cell-based

Compound	protection against MHV-induced CPE [1]	reduction of cell viability (cytotoxicity in uninfected cells) (LR7 cells)	HCoV-NL63 N protein level [2]	inhibition of SARS-CoV-2 replication (replicon) (SARS-CoV-2 replicon)
CC(=O)OC[C@H]1O[C@@H](NC(=O)Cn2cc(CNC(=O)[C@H]3O[C@@H](n4ccc(=O)[nH]c4=O)[C@H](O[Si](C)(C)C(C)(C)C)[C@@H]3O[Si](C)(C)C(C)(C)C)nn2)[C@H](OC(C)=O)[C@@H](OC(C)=O)[C@H]1OC(C)=O [Compound 19, N-Uracil [((1-(2-oxo-(2″,3″,4″,6″-tetra-O-Acetyl-β-D-galactopyranosyl)-amino)-ethyl)-1,2-3-triazol-4-yl)-methyl]-1′-deoxy-2′,3′-di-O-tert-butyldimethylsilyl-β-D-ribofuranuronamide]	limited anti-MHV activity	10–30%	No significant reduction	–
CC(=O)OC[C@H]1O[C@@H](NC(=O)Cn2cc(CNC(=O)[C@H]3O[C@@H](n4ccc(=O)[nH]c4=O)[C@H](O[Si](C)(C)C(C)(C)C)[C@@H]3O[Si](C)(C)C(C)(C)C)nn2)[C@H](OC(C)=O)[C@@H](OC(C)=O)[C@@H]1OC(C)=O [Compound 18, N-Uracil [((1-(2-oxo-(2″,3″,4″,6″-tetra-O-Acetyl-β-D-glucopyranosyl)-amino)-ethyl)-1,2-3-triazol-4-yl)-methyl]-1′-deoxy-2′,3′-di-O-tert-butyldimethylsilyl-β-D-ribofuranuronamide]	limited anti-MHV activity	10–30%	No significant reduction	–
CC(=O)OC[C@H]1O[C@@H](OCc2cn(C[C@H]3O[C@@H](n4ccc(=O)[nH]c4=O)[C@H](O[Si](C)(C)C(C)(C)C)[C@@H]3O[Si](C)(C)C(C)(C)C)nn2)[C@H](OC(C)=O)[C@@H](OC(C)=O)[C@@H]1OC(C)=O [Compound 14, 2′,3′-di-O-tert-Butyldimethylsilyl-5′-deoxy-5′-[4-(2″,3″,4″,6″-tetra-O-acetyl-β-D-glucopyranosyloxymethyl)-1,2-3-triazol-1-yl]-uridine]	significantly reduced cell death	10–30%	significantly reduced; also recorded: weaker activity against HCoV-NL63	–
CC(=O)OC[C@H]1O[C@@H](SCn2cc(CNC(=O)[C@H]3O[C@@H](n4ccc(=O)[nH]c4=O)[C@H](O[Si](C)(C)C(C)(C)C)[C@@H]3O[Si](C)(C)C(C)(C)C)nn2)[C@H](OC(C)=O)[C@@H](OC(C)=O)[C@H]1OC(C)=O [Compound 23, N-Uracil [(1-(2″,3″,4″,6″-tetra-O-Acetyl-β-D-galactopyranosylthiomethyl)-1,2-3-triazol-4-yl)-methyl]-1′-deoxy-2′,3′-di-O-tert-butyldimethylsilyl-β-D-ribofuranuronamide]	–	10–30%	No significant reduction	–
CC(=O)OC[C@H]1O[C@@H](SCn2cc(COC[C@H]3O[C@@H](n4ccc(=O)[nH]c4=O)[C@H](O[Si](C)(C)C(C)(C)C)[C@@H]3O[Si](C)(C)C(C)(C)C)nn2)[C@H](OC(C)=O)[C@@H](OC(C)=O)[C@H]1OC(C)=O [Compound 25, 2′,3′-di-O-tert-Butyldimethylsilyl-5′-O-[(1-(2″,3″,4″,6″-tetra-O-acetyl-β-D-galactopyranosylthiomethyl)-1,2-3-triazol-4-yl)-methyl]-uridine]	lower activity against MHV	–	significantly reduced; also recorded: No N protein was detected	–
CC(=O)OC[C@H]1O[C@@H](SCn2cc(CNC(=O)[C@H]3O[C@@H](n4ccc(=O)[nH]c4=O)[C@H](O[Si](C)(C)C(C)(C)C)[C@@H]3O[Si](C)(C)C(C)(C)C)nn2)[C@H](OC(C)=O)[C@@H](OC(C)=O)[C@@H]1OC(C)=O [Compound 22, N-Uracil [(1-(2″,3″,4″,6″-tetra-O-Acetyl-β-D-glucopyranosylthiomethyl)-1,2-3-triazol-4-yl)-methyl]-1′-deoxy-2′,3′-di-O-tert-butyldimethylsilyl-β-D-ribofuranuronamide]	significantly reduced cell death	no detectable toxicity	No significant reduction	–
CC(C)(C)[C@H](NC(=O)C(F)(F)F)C(=O)N1C[C@H]2[C@@H]([C@H]1C(=O)N[C@H](C#N)C[C@@H]1CCNC1=O)C2(C)C [nirmatrelvir, reference compound]	–	–	–	inhibited SARS-CoV-2 replication
CC(=O)OC[C@H]1O[C@@H](OCCn2cc(CNC(=O)[C@H]3O[C@@H](n4ccc(=O)[nH]c4=O)[C@H](O[Si](C)(C)C(C)(C)C)[C@@H]3O[Si](C)(C)C(C)(C)C)nn2)[C@H](OC(C)=O)[C@@H](OC(C)=O)[C@H]1OC(C)=O [Compound 17, N-Uracil [(1-(2″, 3″, 4″, 6″-tetra-O-Acetyl-β-D-galactopyranosyloxyethyl)-1,2-3-triazol-4-yl)-methyl]-1′-deoxy-2′,3′-di-O-tert-butyldimethylsilyl-β-D-ribofuranuronamide]	–	10–30%	No significant reduction	–
CC(=O)OC[C@H]1O[C@@H](OCCn2cc(CNC(=O)[C@H]3O[C@@H](n4ccc(=O)[nH]c4=O)[C@H](O[Si](C)(C)C(C)(C)C)[C@@H]3O[Si](C)(C)C(C)(C)C)nn2)[C@H](OC(C)=O)[C@@H](OC(C)=O)[C@@H]1OC(C)=O [Compound 16, N-Uracil [(1-(2″,3″,4″,6″-tetra-O-Acetyl-β-D-glucopyranosyloxyethyl)-1,2-3-triazol-4-yl)-methyl]-1′-deoxy-2′,3′-di-O-tert-butyldimethylsilyl-β-D-ribofuranuronamide]	–	10–30%	No significant reduction	–
